In ChEMBL document CHEMBL3822432, “Antibacterial and anticancer activity of a series of novel peptides incorporating cyclic tetra-substituted C(α) amino acids” (Bioorg Med Chem, 2016):
≈ marks a conversion by molar mass, not a printed value. Non-standard residues stand in square brackets, D forms with d. Residues, ends and D or L forms follow the SMILES beside them. ξ: configuration not given here. Ac6c = NC1(C(=O)O)CCCCC1; ξOrn = NCCCC(N)C(=O)O; ξDab = NCCC(N)C(=O)O

What was measured:
[1] = system: Staphylococcus aureus; assay: Antibacterial activity against methicillin-resistant Staphylococcus aureus USA 300 NRS 384 by two fold serial dilution method; format: functional
[2] = system: CFPAC-1; assay: Antiproliferative activity against human CFPAC-1 cells after 72 hrs by Celltiter-Glo luminescent cell viability assay; format: functional, cell-based; conditions: CFPAC-1, 72 h
[3] = system: Klebsiella aerogenes; assay: Antibacterial activity against carbapenem-resistant Enterobacter aerogenes NCDC819-56 ATCC 13048 by two fold serial dilution method; format: functional
[4] = Antiproliferative activity against human IGROV1 cells after 72 hrs by Celltiter-Glo luminescent cell viability assay; format: functional, cell-based; conditions: IGROV-1, 72 h
[5] = Antibacterial activity against Francisella tularensis SCHU S4 NR-643 by two fold serial dilution method; format: functional
[6] = Antibacterial activity against Clostridium difficile VIP 10463 ATCC 43255 by two fold serial dilution method; format: functional, Clostridium difficile ATCC 43255; conditions: Clostridioides difficile
[7] = system: Enterococcus faecalis; assay: Antibacterial activity against Enterococcus faecalis Portland ATCC 29212 by two fold serial dilution method; format: functional; conditions: ATCC 29212 Portland
[8] = system: RL; assay: Antiproliferative activity against human RL cells after 72 hrs by Celltiter-Glo luminescent cell viability assay; format: functional, cell-based
[9] = Antiproliferative activity against human MIAPaCa2 cells after 72 hrs by Celltiter-Glo luminescent cell viability assay; format: functional, cell-based; conditions: MIA PaCa-2, 72 h
[10] = Antibacterial activity against Bacillus anthracis Ames NR-3838 by two fold serial dilution method; format: functional, Bacillus anthracis str. Ames
[11] = Antiproliferative activity against human COLO205 cells after 72 hrs by Celltiter-Glo luminescent cell viability assay; format: functional, cell-based; conditions: COLO 205, 72 h
[12] = Antiproliferative activity against human UACC62 cells after 72 hrs by Celltiter-Glo luminescent cell viability assay; format: functional, cell-based; conditions: UACC-62, 72 h
[13] = Antiproliferative activity against human DLD1 cells after 72 hrs by Celltiter-Glo luminescent cell viability assay; format: functional, cell-based; conditions: DLD-1, 72 h
[14] = system: A549; assay: Antiproliferative activity against human A549 cells after 72 hrs by Celltiter-Glo luminescent cell viability assay; format: functional, cell-based; conditions: A549, 72 h
[15] = system: Pseudomonas aeruginosa; assay: Antibacterial activity against Pseudomonas aeruginosa Boston 41501 ATCC 27853 by two fold serial dilution method; format: functional
[16] = Antibacterial activity against carbapenem-resistant Klebsiella pneumoniae K6 ATCC 700603 by two fold serial dilution method; format: functional, Klebsiella pneumoniae 700603
[17] = system: MCF7; assay: Antiproliferative activity against human MCF7 cells after 72 hrs by Celltiter-Glo luminescent cell viability assay; format: functional, cell-based; conditions: MCF7, 72 h
[18] = system: Neisseria gonorrhoeae; assay: Antibacterial activity against Neisseria gonorrhoeae F-18 ATCC 49226 by two fold serial dilution method; format: functional
[19] = system: NCI-H69; assay: Antiproliferative activity against human NCI-H69 cells after 72 hrs by Celltiter-Glo luminescent cell viability assay; format: functional, cell-based; conditions: NCI-H69, 72 h
[20] = system: Mycobacterium tuberculosis; assay: Antibacterial activity against Mycobacterium tuberculosis H37Ra ATCC 2517 by two fold serial dilution method; format: functional
[21] = Antibacterial activity against Salmonella enterica LT2 Typhimurium ATCC 15277 by two fold serial dilution method; format: functional
[22] = system: Burkholderia pseudomallei; assay: Antibacterial activity against Burkholderia pseudomallei AHS 1 NCTC 8016 by two fold serial dilution method; format: functional
[23] = system: Staphylococcus aureus; assay: Antibacterial activity against Staphylococcus aureus Seattle 1945 ATCC 25923 by two fold serial dilution method; format: functional
[24] = Antiproliferative activity against human PC3 cells after 72 hrs by Celltiter-Glo luminescent cell viability assay; format: functional, cell-based; conditions: PC-3, 72 h
[25] = system: Acinetobacter baumannii; assay: Antibacterial activity against Acinetobacter baumannii B5W71 ATCC 15149 by two fold serial dilution method; format: functional
[26] = system: A498; assay: Antiproliferative activity against human A498 cells after 72 hrs by Celltiter-Glo luminescent cell viability assay; format: functional, cell-based; conditions: A498, 72 h
[27] = system: Streptococcus pneumoniae; assay: Antibacterial activity against Streptococcus pneumoniae 262 ATCC 49619 by two fold serial dilution method; format: functional
[28] = Antibacterial activity against Yersinia pestis CO92 NR641 by two fold serial dilution method; format: functional

Row | Structure (SMILES) | MIC [1] [µM] | IC50 [2] [µM] | MIC [3] [µM] | IC50 [4] [µM] | MIC [5] [µM] | MIC [6] [µM] | MIC [7] [µM] | IC50 [8] [µM] | IC50 [9] [µM] | MIC [10] [µM] | IC50 [11] [µM] | IC50 [12] [µM] | IC50 [13] [µM] | IC50 [14] [µM] | MIC [15] [µM] | MIC [16] [µM] | IC50 [17] [µM] | MIC [18] [µM] | IC50 [19] [µM] | MIC [20] [µM] | also measured
1 | CC(=O)NCC(=O)N[C@@H](Cc1ccccc1)C(=O)NC1(C(=O)NCC(=O)NC2(C(=O)NC(CCCN)C(=O)NC3(C(=O)NCC(=O)NC4(C(=O)N[C@@H](Cc5ccccc5)C(=O)NC5(C(=O)NCC(=O)NC6(C(=O)NCC(=O)NC(CCCN)C(=O)NC7(C(=O)NC(CCCN)C(=O)NC(CCCN)C(=O)NC(CCCN)C(=O)NC(CCCN)C(N)=O)CCCCC7)CCCCC6)CCCCC5)CCCCC4)CCCCC3)CCCCC2)CCCCC1 (stereo not given in full) (Ac-GF[Ac6c]G[Ac6c][ξOrn][Ac6c]G[Ac6c]F[Ac6c]G[Ac6c]G[ξOrn][Ac6c][ξOrn][ξOrn][ξOrn][ξOrn]-NH2) | 22.8 (≈ 50 µg/mL) | 5.9 | 22.8 (≈ 50 µg/mL) | 5.4 | 45.5 (≈ 100 µg/mL) | 5.67 (≈ 12.5 µg/mL) | 11.4 (≈ 25 µg/mL) | 2.5 | 3.6 | 2.84 (≈ 6.25 µg/mL) | 3.2 | 3.1 | 6.2 | 6.5 | 1.42 (≈ 3.12 µg/mL) | 22.8 (≈ 50 µg/mL) | 4.6 | 2.84 (≈ 6.25 µg/mL) | 1.7 | 11.4 (≈ 25 µg/mL) | MIC [21]: 2.84 µM (≈ 6.25 µg/mL); MIC [22]: > 45 µM; MIC [23]: 5.67 µM (≈ 12.5 µg/mL); IC50 [24]: 7.5 µM; MIC [25]: 2.84 µM (≈ 6.25 µg/mL); IC50 [26]: 4.7 µM; MIC [27]: 45.5 µM (≈ 100 µg/mL); MIC [28]: > 45 µM
2 | CC(=O)NCC(=O)N[C@@H](Cc1ccccc1)C(=O)NC1(C(=O)NCC(=O)NC2(C(=O)NC(CCN)C(=O)NC3(C(=O)NCC(=O)NC4(C(=O)N[C@@H](Cc5ccccc5)C(=O)NC5(C(=O)NCC(=O)NC6(C(=O)NCC(=O)NC(CCN)C(=O)NC7(C(=O)NC(CCN)C(=O)NC(CCN)C(=O)NC(CCN)C(=O)NC(CCN)C(N)=O)CCCCC7)CCCCC6)CCCCC5)CCCCC4)CCCCC3)CCCCC2)CCCCC1 (stereo not given in full) (Ac-GF[Ac6c]G[Ac6c][ξDab][Ac6c]G[Ac6c]F[Ac6c]G[Ac6c]G[ξDab][Ac6c][ξDab][ξDab][ξDab][ξDab]-NH2) | 5.91 (≈ 12.5 µg/mL) | 2.7 | 2.97 (≈ 6.28 µg/mL) | 2.3 | 23.6 (≈ 50 µg/mL) | 2.96 (≈ 6.26 µg/mL) | 2.96 (≈ 6.26 µg/mL) | 1.7 | 4.4 | 2.96 (≈ 6.26 µg/mL) | 6.4 | 1.9 | 2.6 | 2.4 | 1.48 (≈ 3.13 µg/mL) | 2.96 (≈ 6.26 µg/mL) | 3 | 1.48 (≈ 3.13 µg/mL) | 1.5 | 11.8 (≈ 25 µg/mL) | MIC [21]: 1.48 µM (≈ 3.13 µg/mL); MIC [22]: > 47 µM; MIC [23]: 2.96 µM (≈ 6.26 µg/mL); IC50 [24]: 6.5 µM; MIC [25]: 1.48 µM (≈ 3.13 µg/mL); IC50 [26]: 2.1 µM; MIC [27]: 47.3 µM (≈ 100 µg/mL); MIC [28]: > 47 µM
3 | CC(=O)NCC(=O)N[C@@H](Cc1ccccc1)C(=O)NC1(C(=O)NCC(=O)NC2(C(=O)N[C@@H](CCCNC(=N)N)C(=O)NC3(C(=O)NCC(=O)NC4(C(=O)N[C@@H](Cc5ccccc5)C(=O)NC5(C(=O)NCC(=O)NC6(C(=O)NCC(=O)N[C@@H](CCCNC(=N)N)C(=O)NC7(C(=O)N[C@@H](CCCNC(=N)N)C(=O)N[C@@H](CCCNC(=N)N)C(=O)N[C@@H](CCCNC(=N)N)C(=O)N[C@@H](CCCNC(=N)N)C(N)=O)CCCCC7)CCCCC6)CCCCC5)CCCCC4)CCCCC3)CCCCC2)CCCCC1 (Ac-GF[Ac6c]G[Ac6c]R[Ac6c]G[Ac6c]F[Ac6c]G[Ac6c]GR[Ac6c]RRRR-NH2) | 5.09 (≈ 12.5 µg/mL) | 2.6 | 2.55 (≈ 6.25 µg/mL) | 6 | 40.8 (≈ 99.9 µg/mL) | 2.55 (≈ 6.25 µg/mL) | 1.28 (≈ 3.14 µg/mL) | 1.1 | 5 | 2.56 (≈ 6.28 µg/mL) | 6.6 | 6.4 | 6.4 | 6.4 | 2.55 (≈ 6.25 µg/mL) | 20.4 (≈ 49.9 µg/mL) | 7 | 2.56 (≈ 6.28 µg/mL) | 2 | 40.8 (≈ 99.9 µg/mL) | MIC [21]: 5.09 µM (≈ 12.5 µg/mL); MIC [22]: > 41 µM; MIC [23]: 1.28 µM (≈ 3.14 µg/mL); IC50 [24]: 7.4 µM; MIC [25]: 2.55 µM (≈ 6.25 µg/mL); IC50 [26]: 5.6 µM; MIC [27]: 10.2 µM (≈ 25 µg/mL); MIC [28]: > 41 µM
4 | CN[C@@H]1[C@H](O[C@H]2[C@H](O[C@H]3[C@H](O)[C@@H](O)[C@H](N=C(N)N)[C@@H](O)[C@@H]3N=C(N)N)O[C@@H](C)[C@]2(O)C=O)O[C@@H](CO)[C@H](O)[C@H]1O [STREPTOMYCIN] |  |  |  |  |  |  |  |  |  |  |  |  |  |  |  |  |  |  |  | 3.4 (≈ 1.98 µg/mL) | 
